The values below are quoted from earlier work in patent US20080058318A1 (priority 2006, published 2008).

In data set [1] the test system is subjects suffering from fibromyalgia syndrome. The conditions noted are these: cited from earlier work; for Subjects with significant clinical improvement: after one month; for Difference between treatment group and placebo: at three months.
A further data set deals with patients with FMS. The conditions noted are these: open-label, cited from earlier work.

`CN(C)CCC=C1c2ccccc2C=Cc2ccccc21` [cyclobenzaprine]: in data set [1], the “Subjects with significant clinical improvement” value is recorded as 12%; the “Difference between treatment group and placebo” value was “no difference”.
As to `CN(C)CCC=C1c2ccccc2CCc2ccccc21` [amitriptyline], in data set [1], the “Subjects with significant clinical improvement” value is given as 21%; the “Difference between treatment group and placebo” value was “no difference”.
As for `COc1ccc(C(CN(C)C)C2(O)CCCCC2)cc1` (stereo not drawn) [venlafaxine], the “Completing patients with insomnia requiring adjunctive medical therapy” value with patients with FMS (11 completing patients) is on record as 3 of 11. For the same molecule, the “Completing patients with a positive response (50% or greater improvement in two measurements of overall pain)” value in the data set on patients with FMS (15 patients, 11 completing) is on record as “Six of 11”.
